Structures are written as SMILES.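 48-hour exposure; five concentrations; linearly interpolated endpoints. GI50: concentration for 50% inhibition of growth.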 Active and inactive are the calls of the source. No stated cut-off is given here; in the data, active = GI50 up to about 1.1 µM and inactive = higher.

Among the test systems are CAKI-1; NCI-H226; MDA-MB-435; UACC-257; OVCAR-3; UACC-62; HL-60; SNB-75; Malme-3M; MDA-N; SK-MEL-28; A549; RPMI-8226; SW-620; U-251; PC-3; SR; OVCAR-5; SF-539; SK-OV-3.
What all share (assay): NCI-60 cell line screen, 48 h

For the compound `Cc1ccc(C)c(NC(=O)NCc2ccc(Cl)cc2)c1`, the GI50 in the assay on CAKI-1 was 27.2 µM (inactive); with NCI-H226, 38.2 µM (inactive); with MDA-MB-435 it was > 100 µM (inactive); in the assay on UACC-257 it was 39.7 µM (inactive); in the assay with OVCAR-3 it was 28.5 µM (inactive); with UACC-62, > 100 µM (inactive). Further, the GI50 with HL-60 is > 100 µM (inactive); in the assay with SNB-75 it was 2.24 µM (inactive); in the assay on Malme-3M, 26.8 µM (inactive); in the assay on MDA-N, > 100 µM (inactive); in the assay on SK-MEL-28 it was 97.5 µM (inactive); in the assay on A549 it was > 100 µM (inactive). In addition, the GI50 in the assay on RPMI-8226 is 37.2 µM (inactive); in the assay on SW-620, 50.7 µM (inactive); with U-251 it was 17.7 µM (inactive); with PC-3, > 100 µM (inactive); in the assay on SR it was 13.8 µM (inactive); in the assay on OVCAR-5, 56.1 µM (inactive). The figures for the GI50 with SF-539 and in the assay on SK-OV-3 were > 100 µM (inactive) and 13.8 µM (inactive), respectively.

With `Brc1ccc2c(-c3nc(-c4c[nH]c5ccccc45)cs3)c[nH]c2c1`, the GI50 with CAKI-1 is 30.9 µM (inactive); with NCI-H226, 39 µM (inactive); in the assay with MDA-MB-435, 34.6 µM (inactive); in the assay with UACC-257, 69.2 µM (inactive); in the assay with OVCAR-3, 39.7 µM (inactive); with UACC-62, 27.5 µM (inactive). The GI50 in the assay on HL-60 was 63 µM (inactive); in the assay on SNB-75, 37.4 µM (inactive); with Malme-3M, > 100 µM (inactive); in the assay on MDA-N it was 41.9 µM (inactive); with SK-MEL-28, > 27.8 µM (inactive); with A549 it was 9.59 µM (inactive). The GI50 in the assay with RPMI-8226 is 12.1 µM (inactive); in the assay with SW-620, 35.4 µM (inactive); with U-251, 35.2 µM (inactive); with PC-3, 30.8 µM (inactive); in the assay with SR, 13.2 µM (inactive); in the assay with OVCAR-5, 31.9 µM (inactive). Also, the figures for the GI50 in the assay on SF-539 and in the assay with SK-OV-3 were 15.6 µM (inactive) and > 100 µM (inactive), respectively.

In the case of `Cc1nnc(Sc2nc(C#N)c(C#N)nc2Sc2nnc(C)s2)s1`, the GI50 was 2.32 µM (inactive) in the assay with CAKI-1; 20.8 µM (inactive) in the assay on NCI-H226; 12.7 µM (inactive) in the assay with MDA-MB-435; 10.4 µM (inactive) with UACC-257; 6.32 µM (inactive) with OVCAR-3; 17.2 µM (inactive) in the assay with UACC-62. Moreover, the GI50 in the assay on HL-60 is 2.72 µM (inactive); with SNB-75, 28.6 µM (inactive); in the assay on Malme-3M it was 0.139 µM (active); in the assay on MDA-N, 12.2 µM (inactive); in the assay on SK-MEL-28, 10.5 µM (inactive); with A549, 22.1 µM (inactive). Besides, the GI50 in the assay with RPMI-8226 was 2.5 µM (inactive); with SW-620 it was 1.67 µM (inactive); with U-251, 19.8 µM (inactive); in the assay with PC-3, 14.8 µM (inactive); in the assay on SR, 9.79 µM (inactive); in the assay with OVCAR-5 it was 17.2 µM (inactive). Also, the GI50 in the assay on SF-539 is 12 µM (inactive); with SK-OV-3 it was 17.2 µM (inactive).

With `C=C1CCC2CC1C(C(=O)c1c[nH]c3ccccc13)=NC2(C)C` (stereo not given), the GI50 in the assay with CAKI-1, in the assay with NCI-H226, in the assay on MDA-MB-435, in the assay with UACC-257, in the assay with OVCAR-3 and in the assay with UACC-62 was > 100 µM (inactive) throughout. The GI50 in the assay on HL-60, with SNB-75, with Malme-3M, in the assay with MDA-N, with SK-MEL-28 and in the assay on A549 was > 100 µM (inactive) throughout. The GI50 in the assay with RPMI-8226 is 91 µM (inactive); with SW-620, > 100 µM (inactive); with U-251 it was > 100 µM (inactive); in the assay with PC-3 it was > 100 µM (inactive); in the assay on SR, > 100 µM (inactive); in the assay with OVCAR-5, > 100 µM (inactive). Also, the GI50 in the assay on SF-539 and in the assay with SK-OV-3 was > 100 µM (inactive) in each case.

With `COc1ccc(N2C(=O)[C@H]3CC(C)c4c([nH]c5ccccc45)[C@H]3C2=O)cc1` (stereo not given in full), the GI50 is 3.08 µM (inactive) in the assay on CAKI-1; 5.66 µM (inactive) in the assay with NCI-H226; 0.611 µM (active) with MDA-MB-435; 4.6 µM (inactive) in the assay with UACC-257; 1.87 µM (inactive) in the assay with OVCAR-3; 1.31 µM (inactive) in the assay on UACC-62. In addition, the GI50 was 1.83 µM (inactive) in the assay on HL-60; 2.03 µM (inactive) in the assay with SNB-75; 2.11 µM (inactive) in the assay with Malme-3M; 0.681 µM (active) in the assay with MDA-N; 4.82 µM (inactive) in the assay with SK-MEL-28; 5.85 µM (inactive) in the assay on A549. The GI50 is 3.48 µM (inactive) with RPMI-8226; 2.87 µM (inactive) in the assay with SW-620; 3.15 µM (inactive) with U-251; 1.66 µM (inactive) in the assay on PC-3; 2.15 µM (inactive) in the assay on SR; 33.7 µM (inactive) in the assay with OVCAR-5. The GI50 is 2.77 µM (inactive) in the assay with SF-539 and 2.4 µM (inactive) in the assay on SK-OV-3.

Regarding `Cc1c(/C=N/NC(=S)N2CCCCC2)c(=O)n(-c2ccccc2)n1C`, the GI50 is 77.1 µM (inactive) with CAKI-1; > 100 µM (inactive) in the assay with NCI-H226; > 100 µM (inactive) in the assay on MDA-MB-435; > 100 µM (inactive) in the assay with UACC-257; 48.4 µM (inactive) in the assay with OVCAR-3; > 100 µM (inactive) with UACC-62. In addition, the GI50 is 14 µM (inactive) with HL-60; > 100 µM (inactive) with SNB-75; 54.1 µM (inactive) in the assay on Malme-3M; > 100 µM (inactive) in the assay on MDA-N; 75.2 µM (inactive) with SK-MEL-28; 55.3 µM (inactive) with A549. The GI50 was 67.5 µM (inactive) in the assay with RPMI-8226; 74.1 µM (inactive) with SW-620; 83.2 µM (inactive) in the assay with U-251; > 100 µM (inactive) in the assay with PC-3; > 100 µM (inactive) with SR; > 100 µM (inactive) in the assay on OVCAR-5. The GI50 is > 100 µM (inactive) in the assay on SF-539 and 68.1 µM (inactive) with SK-OV-3.

On to `C/C1=C/C(C)CC(C)OC(=O)C(C)NC(=O)C(Cc2ccc(O)c(I)c2)N(C)C(=O)C(C)NC(=O)C(C)C1` (stereo not given), for which the GI50 is < 0.01 µM (active) in the assay with CAKI-1; < 0.0363 µM (active) with NCI-H226; < 0.01 µM (active) in the assay with MDA-MB-435; < 0.01 µM (active) with UACC-257; < 0.01 µM (active) in the assay on OVCAR-3; < 0.0256 µM (active) with UACC-62. Also, the GI50 in the assay with HL-60 is < 0.01 µM (active); in the assay on SNB-75 it was < 0.01 µM (active); in the assay with Malme-3M, < 0.0242 µM (active); in the assay on MDA-N, < 0.01 µM (active); in the assay with SK-MEL-28, 0.0314 µM (active); in the assay on A549, < 0.01 µM (active). In addition, the GI50 with RPMI-8226 is < 0.01 µM (active); in the assay with SW-620, < 0.01 µM (active); with U-251, < 0.01 µM (active); in the assay with PC-3, < 0.01 µM (active); in the assay on SR it was < 0.01 µM (active); in the assay on OVCAR-5, 7.23 µM (inactive). The GI50 in the assay on SF-539 and with SK-OV-3 was < 0.01 µM (active) in each case.

Consider `CN(C)CCNC(=O)c1cnn(C)c1[N+](=O)[O-]`, for which the GI50 was > 100 µM (inactive) in the assay with CAKI-1; > 100 µM (inactive) in the assay on NCI-H226; > 100 µM (inactive) in the assay on MDA-MB-435; 53 µM (inactive) in the assay on UACC-257; 24.5 µM (inactive) with OVCAR-3; 52.4 µM (inactive) in the assay on UACC-62. For the same compound, the GI50 is 35.2 µM (inactive) in the assay on HL-60; > 100 µM (inactive) in the assay with SNB-75; 18.6 µM (inactive) in the assay on Malme-3M; 41.6 µM (inactive) in the assay with MDA-N; > 100 µM (inactive) with SK-MEL-28; > 100 µM (inactive) with A549. Further, the GI50 is > 100 µM (inactive) with RPMI-8226; 79.6 µM (inactive) with SW-620; > 100 µM (inactive) with U-251; 36.1 µM (inactive) with PC-3; > 100 µM (inactive) in the assay with SR; > 100 µM (inactive) in the assay on OVCAR-5. Also, the GI50 in the assay with SF-539 and in the assay with SK-OV-3 was > 100 µM (inactive) in each case.

As to `N#Cc1c(Cl)c(C=O)c(=O)n2c1[nH]c1ccccc12`, the GI50 in the assay with CAKI-1 was 40.3 µM (inactive); with NCI-H226 it was 24.7 µM (inactive); in the assay with MDA-MB-435 it was 33.7 µM (inactive); in the assay with UACC-257 it was 56.8 µM (inactive); in the assay on OVCAR-3, 20.1 µM (inactive); in the assay on UACC-62, 55.6 µM (inactive). For the same compound, the GI50 in the assay with HL-60 is 42.6 µM (inactive); in the assay with SNB-75 it was 42.1 µM (inactive); with Malme-3M it was 26.4 µM (inactive); in the assay with MDA-N, 43.7 µM (inactive); in the assay with SK-MEL-28, 63.1 µM (inactive); with A549 it was > 100 µM (inactive). Moreover, the GI50 with RPMI-8226 was > 100 µM (inactive); in the assay with SW-620, 77.4 µM (inactive); with U-251, 67 µM (inactive); in the assay with PC-3 it was 55.1 µM (inactive); with SR it was 10 µM (inactive); in the assay with OVCAR-5, 28.4 µM (inactive). The results for the GI50 with SF-539 and in the assay with SK-OV-3 were 35.9 µM (inactive) and > 100 µM (inactive), respectively.

As for `[N-]=[N+]=NCC1OC(n2cnc3c(N)ncnc32)C2OC12` (stereo not given), the GI50 in the assay on CAKI-1, with NCI-H226, in the assay on MDA-MB-435, in the assay with UACC-257, in the assay with OVCAR-3 and with UACC-62 was > 100 µM (inactive) each time. In addition, the GI50 in the assay on HL-60, in the assay on SNB-75, with Malme-3M, with MDA-N, in the assay on SK-MEL-28 and in the assay on A549 was > 100 µM (inactive) in each case. In addition, the GI50 with RPMI-8226, in the assay with SW-620, in the assay on U-251, with PC-3, in the assay with SR and in the assay with OVCAR-5 was > 100 µM (inactive) throughout. Moreover, the GI50 with SF-539 and in the assay with SK-OV-3 was > 100 µM (inactive) in each case.
